# Marks after values point to notes of the source that are not given here.
# Columns and labels:
# MAO-B = molecular target: T1, MAO-B (Homo sapiens, UniProt P27338); assay: Binding affinity to MAO-B in human HC brain homogenate (3H-deprenyl competition); parameters: key to Low affinity to MAO B (IC50 in human HC brain homogenate), grade: − poor; ∘ moderate; + good; ++ very good; +++ excellent; settings: for IC50: 3H-deprenyl competition
# T1 construct: 20 μg of human brain homogenate (without AD pathology); from tissue; host or cells: human brain homogenate without AD pathology
# T1 sequence (P27338 1-520): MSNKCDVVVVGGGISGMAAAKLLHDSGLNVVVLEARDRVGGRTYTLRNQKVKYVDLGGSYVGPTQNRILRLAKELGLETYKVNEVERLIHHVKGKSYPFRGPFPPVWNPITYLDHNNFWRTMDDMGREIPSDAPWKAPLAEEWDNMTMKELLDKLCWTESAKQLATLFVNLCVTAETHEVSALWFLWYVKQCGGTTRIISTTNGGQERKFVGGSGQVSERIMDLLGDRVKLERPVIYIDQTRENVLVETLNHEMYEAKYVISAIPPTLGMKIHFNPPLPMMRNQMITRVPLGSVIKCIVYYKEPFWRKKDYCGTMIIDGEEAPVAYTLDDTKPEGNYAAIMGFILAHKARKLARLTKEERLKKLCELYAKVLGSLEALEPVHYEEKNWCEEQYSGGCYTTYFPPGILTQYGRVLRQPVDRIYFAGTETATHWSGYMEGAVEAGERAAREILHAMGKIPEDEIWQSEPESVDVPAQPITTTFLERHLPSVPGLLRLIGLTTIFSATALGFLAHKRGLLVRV
# Description: Determination of the Binding Affinity to MAO-B in HC Brain Homogenate
# (§1) 20 μg of human brain homogenate (without AD pathology) was incubated with a dilution series of each test compound (1000 to 0.06 nM) in the presence of 700 Bq of ^3H-labeled MAO-B binder Deprenyl. The samples were shaken at 110 rpm for 60 min at 37° C. Samples were then filtered through GF/B 96 well filter plates and washed twice with 200 μL assay buffer (PBS containing 0.1% BSA and 2% DMSO). Thereafter, 40 μL Szintillation cocktail was added and the filter plates were sealed. The counts were then counted using a TopCount (Perkin Elmer). Non-specific signal was determined with samples containing ^3H-deprenyl in the presence of assay buffer without brain substrate and competitor. Specific binding was calculated by subtracting the non-specific signal from the measured samples signal. The unblocked ^3H-deprenyl signal was defined as total binding. IC50 values were calculated by Prism V7 (GraphPad) setting total binding to 100%.
# MAO-A [1] = molecular target: T2, MAO-A (Mus musculus, UniProt Q64133); assay: Binding affinity to MAO-A in mouse whole brain homogenate (3H-Harmine competition); parameters: key to Low affinity to MAO A (IC50 in mouse brain homogenate), grade: − poor; ∘ moderate; + good; ++ very good; +++ excellent; settings: for fold higher IC50 than compound 18F-1, MAO A in whole mouse brain homogenate: ratio to 18F-1
# T2 construct: 20 μg of mouse whole brain or human brain homogenate; from tissue; host or cells: mouse whole brain homogenate
# T2 sequence (Q64133 1-526): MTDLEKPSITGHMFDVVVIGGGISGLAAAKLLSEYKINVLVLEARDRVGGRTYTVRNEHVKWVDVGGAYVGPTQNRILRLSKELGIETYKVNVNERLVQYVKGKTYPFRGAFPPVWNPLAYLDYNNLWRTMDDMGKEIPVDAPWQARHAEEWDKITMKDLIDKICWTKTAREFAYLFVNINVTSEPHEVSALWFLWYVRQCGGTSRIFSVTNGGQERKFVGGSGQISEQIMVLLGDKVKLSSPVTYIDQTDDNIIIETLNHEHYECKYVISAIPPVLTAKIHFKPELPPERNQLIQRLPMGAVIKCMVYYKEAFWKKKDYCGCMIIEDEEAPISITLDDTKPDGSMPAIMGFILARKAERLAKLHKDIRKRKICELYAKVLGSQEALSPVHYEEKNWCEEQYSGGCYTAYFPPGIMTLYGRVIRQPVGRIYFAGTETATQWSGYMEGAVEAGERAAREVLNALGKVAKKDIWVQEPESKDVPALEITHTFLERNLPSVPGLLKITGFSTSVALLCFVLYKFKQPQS
# Description: (§2) Determination of the Binding Affinity to MAO-A in HC Brain Homogenate
# as §1, with “μg of mouse whole brain or human brain” for “μg of human brain”, “(without AD pathology, HC) was incubated” for “(without AD pathology) was incubated”, “of ^3H-labeled MAO-A binder Harmine.” for “of ^3H-labeled MAO-B binder Deprenyl.”, “MAO-A binder Harmine. The samples” for “MAO-B binder Deprenyl. The samples”, “samples containing ^3H-Harmine in the” for “samples containing ^3H-deprenyl in the”, “The unblocked ^3H-Harmine signal was” for “The unblocked ^3H-deprenyl signal was”
# [2] = molecular target: amyloid-beta in human Alzheimer disease brain homogenate (Homo sapiens, UniProt P05067); assay: Binding affinity to amyloid-beta in AD brain homogenate (3H-PIB competition); parameters: key to Low affinity to amyloid-beta (IC50 in AD brain homogenate), grade: − poor; ∘ moderate; + good; ++ very good; +++ excellent; settings: non-radioactive fluorine-19 derivatives; for IC50: human AD brain homogenate
# Sequence of amyloid-beta in human Alzheimer disease brain homogenate (P05067 672-711 limits assumed): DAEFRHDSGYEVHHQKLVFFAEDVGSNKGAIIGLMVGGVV
# Description: Determination of the Binding Affinity to Amyloid-Beta in AD Brain Homogenate 20 μg of human Alzheimer disease brain homogenate was incubated with a dilution series of each test compound (1000 to 0.06 nM) in the presence of 700 Bq of ^3H-labeled beta-amyloid binder PIB. The samples were shaken at 110 rpm for 60 min at 37° C. Samples were then filtered through GF/B 96 well filter plates and washed twice with 200 μL assay buffer (PBS containing 0.1% BSA and 2% DMSO). Thereafter, 40 μL Szintillation cocktail was added and the filter plates were sealed. The counts were then counted using a TopCount (Perkin Elmer). Non-specific signal was determined with samples containing ^3H-labeled beta-amyloid binder in the presence of assay buffer without brain substrate and competitor. Specific binding was calculated by subtracting the non-specific signal from the measured samples signal. The unblocked ^3H-labeled beta-amyloid binder signal was defined as total binding. IC50 values were calculated by Prism V7 (GraphPad) setting total binding to 100%.
# [3] = molecular target: Tau in human Alzheimer disease brain homogenate (Homo sapiens, UniProt P10636); assay: Competition binding to Tau in AD brain homogenate (18F-labeled Tau binder); parameters: key to High affinity to Tau (IC50 in AD brain homogenate), grade: − poor; ∘ moderate; + good; ++ very good; +++ excellent; settings: for IC50 / High affinity to Tau (IC50 in AD brain homogenate), grade: non-radioactive fluorine-19 derivatives
# Sequence of Tau in human Alzheimer disease brain homogenate (P10636 623-708 limits assumed): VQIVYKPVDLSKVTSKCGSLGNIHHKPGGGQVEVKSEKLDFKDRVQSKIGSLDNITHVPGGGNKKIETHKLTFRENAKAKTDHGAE
# Description: Determination of Binding in AD and Healthy Control Brain Homogenates
# 20 μg of human Alzheimer disease brain homogenate was incubated with a dilution series of each test compound (1000 to 0.06 nM) in the presence of 800 Bq of ^18F-labeled Tau binder. The samples were shaken at 110 rpm for 45 min at 37° C. Samples were then filtered through GF/B 96 well filter plates and washed twice with 300 μL assay buffer (PBS containing 0.1% BSA and 2% DMSO). Thereafter, filter plates were sealed and a Fuji Film Imaging Plate (BAS-SR2025) was placed on top. The imaging plate was analyzed after overnight exposition using a Fuji Film BAS-5000. Non-specific signal was determined with samples containing ^18F-labeled Tau-reference binder in the presence of assay buffer without brain substrate and competitor. Specific binding was calculated by subtracting the non-specific signal from the measured samples signal. The unblocked ^18F-labeled Tau-binder signal was defined as total binding. IC50 values were calculated by Prism V7 (GraphPad) setting total binding to 100%.
# MAO-A [4] = molecular target: T3, MAO-A (Homo sapiens, UniProt P21397); assay: Binding affinity to MAO-A in human HC brain homogenate (3H-Harmine competition); parameters: key to Low affinity to MAO A (IC50 in human HC brain homogenate), grade: − poor; ∘ moderate; + good; ++ very good; +++ excellent; settings: for IC50: human control brain homogenate, 3H-Harmine competition
# T3 construct: human brain homogenate (without AD pathology, HC); from tissue; host or cells: human brain homogenate without AD pathology (HC)
# T3 sequence (P21397 1-527): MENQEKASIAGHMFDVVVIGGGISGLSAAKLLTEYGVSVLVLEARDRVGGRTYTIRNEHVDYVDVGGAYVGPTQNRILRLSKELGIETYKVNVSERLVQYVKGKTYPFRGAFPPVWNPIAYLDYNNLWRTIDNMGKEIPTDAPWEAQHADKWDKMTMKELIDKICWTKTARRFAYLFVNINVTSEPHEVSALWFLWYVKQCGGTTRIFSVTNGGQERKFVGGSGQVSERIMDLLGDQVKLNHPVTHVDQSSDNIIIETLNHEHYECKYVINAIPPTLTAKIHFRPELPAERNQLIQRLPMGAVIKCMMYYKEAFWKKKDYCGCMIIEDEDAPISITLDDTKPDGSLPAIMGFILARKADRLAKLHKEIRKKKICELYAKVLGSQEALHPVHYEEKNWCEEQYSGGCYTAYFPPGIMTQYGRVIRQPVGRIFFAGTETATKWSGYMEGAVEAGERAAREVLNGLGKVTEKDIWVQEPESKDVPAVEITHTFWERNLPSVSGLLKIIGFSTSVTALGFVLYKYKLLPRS
# Description: as §2
# as §1, with “μg of mouse whole brain or human brain” for “μg of human brain”, “(without AD pathology, HC) was incubated” for “(without AD pathology) was incubated”, “of ^3H-labeled MAO-A binder Harmine.” for “of ^3H-labeled MAO-B binder Deprenyl.”, “MAO-A binder Harmine. The samples” for “MAO-B binder Deprenyl. The samples”, “samples containing ^3H-Harmine in the” for “samples containing ^3H-deprenyl in the”, “The unblocked ^3H-Harmine signal was” for “The unblocked ^3H-deprenyl signal was”
# [5] = molecular target: T4, aggregated recombinant human K18 fibrils (Homo sapiens, UniProt P10636); assay: Binding affinity to K18 Tau aggregates (3H-labeled Tau binder competition); parameters: key to High affinity to Tau (IC50 using K18 Tau aggregates), grade: − poor; ∘ moderate; + good; ++ very good; +++ excellent; settings: non-radioactive fluorine-19 derivatives; for IC50: read-out: IC50 using K18 Tau aggregates
# T4 construct: aggregated recombinant human K18 fibrils
# T4 sequence (P10636 561-685 limits assumed): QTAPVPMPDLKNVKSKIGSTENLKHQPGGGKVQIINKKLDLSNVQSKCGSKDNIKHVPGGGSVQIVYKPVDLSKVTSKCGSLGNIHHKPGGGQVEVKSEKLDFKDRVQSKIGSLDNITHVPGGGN
# Description: Determination of the Binding Affinity to K18 Tau Aggregates
# 200 ng of aggregated recombinant human K18 fibrils were incubated with a dilution series of each test compound (1000 to 0.06 nM) in the presence of 3 nM of ^3H-labeled Tau binder. The samples were shaken at 110 rpm for 60 min at 37° C. Samples were then filtered through GF/B 96 well filter plates and washed twice with 200 μL assay buffer (PBS containing 0.1% BSA and 2% DMSO). Thereafter, 40 μL of MicroScint 40 was added to each well of the filter plate. Filter plates were sealed and then placed shaking at 110 rpm at 37° C. for 15 min. Measurement was done by TopCount NXT HTS (PerkinElmer). Non-specific signal was determined with samples containing ^3H-labeled Tau binder in the presence of 2.5 μM unlabeled Tau-reference binder and K18 fibrils. Specific binding was calculated by subtracting the non-specific signal from the measured samples signal. The unblocked ^3H-labeled Tau-binder signal was defined as total binding. IC50 values were calculated by Prism V7 (GraphPad) setting total binding to 100%.
# [6] = Tracer signal in mouse brain homogenate compared to AD brain homogenate; assay type: binding; parameters: key to High signal to noise (% signal intensity in mouse brain homogenate compared to tracer signal in AD brain homogenate), grade: − poor; ∘ moderate; + good; ++ very good; +++ excellent; settings: radioactive fluorine-18 derivatives
# [7] = Tracer signal in HC brain homogenate compared to AD brain homogenate; assay type: binding, human; parameters: key to Signal to noise (% signal intensity in HC brain homogenate compared to tracer signal in AD brain homogenate), grade: − poor; ∘ moderate; + good; ++ very good; +++ excellent
# [8] = mouse brain homogenate, 3H-Harmine competition
# [9] = radioactive fluorine-18 derivatives
Compound,IC50 (MAO-B; human HC brain homogenate) [nM],IC50 (MAO-A [1]; [8]) [nM],IC50 [2] [nM],IC50 ([3]; human AD brain homogenate) [nM],IC50 (MAO-A [4]) [nM],IC50 [5] [nM],"Low affinity to MAO A (IC50 in mouse brain homogenate), grade (MAO-A [1]; mouse brain homogenate)","fold higher IC50 than compound 18F-1, MAO A in whole mouse brain homogenate (MAO-A [1]) [fold]","High affinity to Tau (IC50 in AD brain homogenate), grade [3]",also measured
"Fc1ccc(-c2ccc3c(c2)[nH]c2ccncc23)cn1 [F-1, reference compound]",78,4.6,> 1000,< 2,5.9,–,–,–,–,–
Fc1cc(-c2ccc3c(c2)[nH]c2ccncc23)ccn1 [F-2],778,51.4,> 1000,< 2,37.2,–,–,–,–,–
Fc1cc(-c2nc3[nH]c4ccncc4c3s2)ccn1 [F-3],–,–,–,–,–,–,–,–,–,"MAO-A binding affinity (in words) (MAO-A [1]; [8]): Low affinity; affinity towards tau (in words) ([3]; competition assay, human AD brain homogenate): good affinity"
"[18F]c1ccc(-c2ccc3c(c2)[nH]c2ccncc23)cn1 [^18F-1, reference compound]",78,4.6,> 1000,< 2,5.9,19.6,–,–,–,–
[18F]c1cc(-c2ccc3c(c2)[nH]c2ccncc23)ccn1 [^18F-2],778,51.4,> 1000,< 2,37.2,3,∘,11,+++,"Low affinity to MAO B (IC50 in human HC brain homogenate), grade (MAO-B; human HC brain homogenate): ++; fold higher IC50 than compound 18F-1, MAO B in HC brain homogenate (MAO-B; ratio to 18F-1): > 10 fold; High affinity to Tau (IC50 using K18 Tau aggregates), grade ([5]; K18 Tau aggregates): ++; Low affinity to amyloid-beta (IC50 in AD brain homogenate), grade ([2]; AD brain homogenate): +++^a); Low affinity to MAO A (IC50 in human HC brain homogenate), grade (MAO-A [4]; human HC brain homogenate): ∘; fold higher IC50 than compound 18F-1, MAO A in human control brain homogenate (MAO-A [4]; ratio to 18F-1): 6.3 fold; % signal intensity in mouse brain homogenate compared to tracer signal in AD brain homogenate [6]: (57%); High signal to noise (% signal intensity in mouse brain homogenate compared to tracer signal in AD brain homogenate), grade [6]: +; less relative signal in HC brain homogenate ratio than 18F-1 ([7]; binding in AD brain homogenate and HC brain homogenate, difference to 18F-1): 19%; % signal intensity in HC brain homogenate compared to tracer signal in AD brain homogenate [7, 9]: (66%); Signal to noise (% signal intensity in HC brain homogenate compared to tracer signal in AD brain homogenate), grade [7, 9]: ∘"
[18F]c1cc(-c2cc3[nH]c4ccncc4c3s2)ccn1 [^18F-3],–,> 1000,–,13.4,–,–,+++,> 100,+,–
